Literature values in patent publication US9402907B2, “Pharmaceutical composition containing diamine derivative” (DAIICHI SANKYO COMPANY, LIMITED, priority 2011, dated 2016).
Like-named read-outs stand apart in the source and are kept apart here.

CN1CCc2nc(C(=O)N[C@@H]3C[C@@H](C(=O)N(C)C)CC[C@@H]3NC(=O)C(=O)Nc3ccc(Cl)cn3)sc2C1 [Compound I, N^1-(5-chloropyridin-2-yl)-N^2-((1S,2R,4S)-4-[(dimethylamino)carbonyl]-2-{[(5-methyl-4,5,6,7-tetrahydrothiazolo[5,4-c]pyridin-2-yl)carbonyl]amino}cyclohexyl)ethanediamide]
solubility (aqueous solution having a pH in the neutral region (e.g., a neutral buffer)): reduced solubility
solubility (strongly acidic aqueous solution): favorable solubility
